Molecular target: hROMK (human Kir1.1) (Homo sapiens (Human), UniProt P48048)
Assay: cell-based
Conditions: CHO T-Rex hROMK stable cell line; thallium flux; 10-point concentration response curve; read-out: Human ROMK Th Flux IC50

hROMK (human Kir1.1), sequence (P48048 whole entry): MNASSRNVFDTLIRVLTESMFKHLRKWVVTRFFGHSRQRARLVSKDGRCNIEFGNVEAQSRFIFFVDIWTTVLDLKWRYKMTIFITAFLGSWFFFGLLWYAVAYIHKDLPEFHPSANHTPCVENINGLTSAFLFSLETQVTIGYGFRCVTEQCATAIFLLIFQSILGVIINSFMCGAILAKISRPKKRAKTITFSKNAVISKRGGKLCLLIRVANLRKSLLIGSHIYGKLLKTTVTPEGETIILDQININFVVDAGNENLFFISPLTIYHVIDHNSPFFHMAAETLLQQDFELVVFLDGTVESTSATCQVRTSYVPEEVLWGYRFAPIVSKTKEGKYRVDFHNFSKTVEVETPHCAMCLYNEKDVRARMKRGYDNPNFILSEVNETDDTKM

Work on `Cc1c([C@@H]2CN(Cc3cnn(-c4ccc(S(C)(=O)=O)cc4)c3)CCO2)ccc2c1COC2=O` [Example 45-I, (R)-4-methyl-5-(4-((1-(4-(methylsulfonyl)phenyl)-1H-pyrazol-4-yl)methyl)morpholin-2-yl)isobenzofuran-1(3H)-one] yielded an IC50 of 0.37 µM.

`Cc1c([C@@H]2CN(Cc3cnn(-c4ccc5oc(=O)n(C)c5c4)c3)C(=O)O2)ccc2c1COC2=O` [Example 80-I, (R)-3-methyl-5-(4-((5-(4-methyl-1-oxo-1,3-dihydroisobenzofuran-5-yl)-2-oxooxazolidin-3-yl)methyl)-1H-pyrazol-1-yl)benzo[d]oxazol-2(3H)-one] was tested, and the IC50 was 0.49 µM.

For `COC(=O)N1CCN(Cc2cnn(-c3cc(C)c(C#N)cn3)c2)C[C@H]1c1ccc2c(c1C)COC2=O` [Example 24-I, Methyl (R)-4-((1-(5-cyano-4-methylpyridin-2-yl)-1H-pyrazol-4-yl)methyl)-2-(4-methyl-1-oxo-1,3-dihydroisobenzofuran-5-yl)piperazine-1-carboxylate], the IC50 was 0.5 µM.

`Cc1c(C#N)ccnc1-n1cc(CN2C[C@@H](c3ccc4c(c3C)COC4=O)N[C@@H](C)C2)cn1` [Example 202-I, 3-methyl-2-(4-(((3S,5R)-3-methyl-5-(4-methyl-1-oxo-1,3-dihdyroisobenzofuran-5-yl)piperazin-1-yl)methyl)-1H-pyrazol-1-yl)isonicotinonitrile] gave an IC50 of 0.14 µM.

For `Cc1cc(-n2cnc(CN3C[C@@H](c4ccc5c(c4C)COC5=O)N[C@@H](C)C3)c2)cc(C)n1` [Example 181-I, 5-((2R,6S)-4-((1-(2,6-dimethylpyridin-4-yl)-1H-imidazol-4-yl)methyl)-6-methylpiperazin-2-yl)-4-methylisobenzofuran-1(3H)-one], the IC50 was 0.15 µM.

`Cc1cnc(-n2cc(CN3C[C@@H](c4ccc5c(c4C)COC5=O)N[C@@H](C)C3)cn2)cn1` [Example 206-I, 4-methyl-5-((2R,6S)-6-methyl-4-((1-(5-methylpyrazin-2-yl)-1H-pyrazol-4-yl)methyl)piperazin-2-yl)isobenzofuran-1(3H)-one] was tested, and the IC50 was 0.082 µM.

`Cc1c(C2CN(Cc3cnn(-c4ccc5oc(=O)n(C)c5c4)c3)CCC2(F)F)ccc2c1COC2=O` (stereo not shown) [Example 4, 5-(4-((4,4-difluoro-3-(4-methyl-1-oxo-1,3-dihydroisobenzofuran-5-yl)piperidin-1-yl)methyl)-1H-pyrazol-1-yl)-3-methylbenzo[d]oxazol-2(3H)-one] showed an IC50 of 0.64 µM.

`Cc1cc(-c2cnc(CN3CCN[C@H](c4ccc5c(c4C)COC5=O)C3)nc2)ncc1C#N` [Example 183-I, (R)-4-methyl-6-(2-((3-(4-methyl-1-oxo-1,3-dihydroisobenzofuran-5-yl)piperazin-1-yl)methyl)pyrimidin-5-yl)nicotinonitrile] showed an IC50 of 0.18 µM.

With `Cc1cn(-c2ncc(CN3CCO[C@H](c4ccc5c(c4C)COC5=O)C3)cn2)cn1` [Example 224-I, (R)-4-methyl-5-(4-((2-(4-methyl-1H-imidazol-1-yl)pyrimidin-5-yl)methyl)morpholin-2-yl)isobenzofuran-1(3H)-one] the IC50 was 0.027 µM.

In the case of `Cc1cc(-n2cc(CN3CCC(=O)C(c4ccc5c(c4C)COC5=O)C3)cn2)ncc1C#N` (stereo not shown) [Example 232-I, 4-methyl-6-(4-((3-(4-methyl-1-oxo-1,3-dihydroisobenzofuran-5-yl)-4-oxopiperidin-1-yl)methyl)-1H-pyrazol-1-yl)nicotinonitrile], the IC50 is reported as 0.48 µM.

`COc1cc(-n2cc(CN3C[C@@H](c4ccc5c(c4C)COC5=O)N[C@@H](C)C3)n(C(C)C)c2=O)ncc1C#N` [Example 172-I, 6-(3-isopropyl-4-(((3S,5R)-3-methyl-5-(4-methyl-1-oxo-1,3-dihydroisobenzofuran-5-yl)piperazin-1-yl)methyl)-2-oxo-2,3-dihydro-1H-imidazol-1-yl)-4-methoxynicotinonitrile] was tested, and the IC50 was 0.16 µM.

Work on `Cc1cc(-n2ccc(CN3CCO[C@H](c4ccc5c(c4C)COC5=O)C3)n2)ncc1C#N` [Example 53-I, (R)-4-methyl-6-(3-((2-(4-methyl-1-oxo-1,3-dihydroisobenzofuran-5-yl)morpholino)methyl)-1H-pyrazol-1-yl) nicotinonitrile] yielded an IC50 of 0.37 µM.

Compound `Cc1cc(-n2cc(CN3C[C@@H](c4ccc5c(c4C)COC5=O)OCC3=O)cn2)ncc1C#N` [Example 10-I, (R)-4-methyl-6-(4-((2-(4-methyl-1-oxo-1,3-dihydroisobenzofuran-5-yl)-5-oxomorpholino)methyl)-1H-pyrazol-1-yl)nicotinonitrile] has an IC50 of 0.62 µM.

`Cc1c([C@@H]2CN(Cc3cnn(-c4cc(F)c5oc(=O)n(C)c5c4)c3)CCN2)ccc2c1COC2=O` [Example 55-I, (R)-7-fluoro-3-methyl-5-(4-((3-(4-methyl-1-oxo-1,3-dihydroisobenzo-furan-5-yl)piperazin-1-yl)methyl)-1H-pyra-zol-1-yl)benzo[d]oxazol-2(3H)-one] gave an IC50 of 0.086 µM.

Work on `Cc1c([C@@H]2CN(Cc3cnn(-c4cnccn4)c3)CCO2)ccc2c1COC2=O` [Example 39-I, (R)-4-methyl-5-(4-((1-(pyrazin-2-yl)-1H-pyrazol-4-yl)methyl)morpholin-2-yl)isobenzo-furan-1(3H)-one] yielded an IC50 of 0.77 µM.

For `Cc1noc(-c2ccc(CN3CCN[C@H](c4ccc5c(c4C)COC5=O)C3)cn2)n1` [Example 264-I, (R)-4-methyl-5-(4-((6-(3-methyl-1,2,4-oxadiazol-5-yl)pyridin-3-yl)methyl)piperazin-2-yl)isobenzofuran-1(3H)-one], the IC50 was 0.58 µM.

`Cc1c([C@@H]2CN(Cc3cnn(-c4ccncc4)c3)CCO2)ccc2c1COC2=O` [Example 44-I, (R)-4-methyl-5-(4-((1-(pyridin-4-yl)-1H-pyrazol-4-yl)methyl)morpholin-2-yl)isobenzo-furan-1(3H)-one] showed an IC50 of 0.2 µM.

For `Cc1cc(-c2nnc(CN3CCO[C@H](c4ccc5c(c4C)COC5=O)C3)o2)ncc1C#N` [Example 30-I, (R)-4-methyl-6-(5-((2-(4-methyl-1-oxo-1,3-dihydroisobenzofuran-5-yl)morpholino)methyl)-1,3,4-oxadiazol-2-yl) nicotinonitrile], the IC50 was 0.26 µM.

Compound `Cc1cc(N2CCOC2=O)cc(-n2cc(CN3C[C@@H](c4ccc5c(c4C)COC5=O)N[C@@H](C)C3)cn2)c1` [Example 152-I, 3-(3-methyl-5-(4-(((3S,5R)-3-methyl-5-(4-methyl-1-oxo-1,3-dihydroisobenzofuran-5-yl)piperazin-1-yl)methyl)-1H-pyrazol-1-yl)phenyl)oxazolidin-2-one] has an IC50 of 0.49 µM.

In the case of `Cc1c([C@@H]2CN(Cc3cn(-c4ccnc(C(F)F)n4)cn3)C[C@H](C)N2)ccc2c1COC2=O` [Example 271-I, 5-((2R,6S)-4-((1-(2-(difluoromethyl)pyrimidin-4-yl)-1H-imidazol-4-yl)methyl)-6-methylpiperazin-2-yl)-4-methylisobenzofuran-1(3H)-one], the IC50 is reported as 0.1 µM.

For `COc1cc(-c2ccc(CN3CC(=O)N[C@H](c4ccc5c(c4C)COC5=O)C3)cn2)ncc1C#N` [Example 74-I, (R)-4-methoxy-5′-((3-(4-methyl-1-oxo-1,3-di-hydroisobenzofuran-5-yl)-5-oxopiperazin-1-yl)methyl)-[2,2′-bi-pyridine]-5-carbonitrile], the IC50 was 0.57 µM.

`Cc1c([C@@H]2CN(Cc3cnn(-c4cc(C5CC5)c(C#N)cn4)c3)CCO2)ccc2c1COC2=O` [Example 8-I, (R)-4-cyclopropyl-6-(4-((2-(4-methyl-1-oxo-1,3-dihydroisobenzofuran-5-yl)morpholino)methyl)-1H-pyrazol-1-yl)nicotinonitrile] was tested, and the IC50 was 0.28 µM.

Reference: US10501449B2 (priority 2018, dated 2019)
